Test systems include A549; HCC 2998; HOP-62; K562; LOX IMVI; MOLT-4; NCI-H460; NCI/ADR-RES; OVCAR-3; OVCAR-5; RPMI-8226; SR; SW-620; TK-10; UO-31; RXF 393.
What all share (test): DTP human tumour cell line panel, 48 h

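Interpolation was linear, between the two tested concentrations surrounding the appropriate level; five concentrations were tested over 48 hours in 96-well plates. GI50 = concentration required for 50% inhibition of growth.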 Activity calls are given as the source filed them. Cut-off read from the data, not from the text of the source: active = GI50 up to about 1.1 µM and inactive = higher.

As usually defined, the GI50 is the concentration that inhibits growth by half.

In the case of `CCOC(=O)n1c2ccccc2c2c(O)c(OC)c3c(c21)C(=O)NC3=O`, the GI50 was 38.5 µM (inactive) in the experiment on A549; 12.2 µM (inactive) in the experiment on HCC 2998; 23 µM (inactive) in the experiment with HOP-62; 40.9 µM (inactive) in the experiment on K562; 15.2 µM (inactive) with LOX IMVI; 19.5 µM (inactive) with MOLT-4. Moreover, the GI50 in the experiment with NCI-H460 is 13.9 µM (inactive); in the experiment on NCI/ADR-RES it was 28.6 µM (inactive); in the experiment on OVCAR-3 it was 22.2 µM (inactive); with OVCAR-5 it was 50.9 µM (inactive); with RPMI-8226, 58.5 µM (inactive); in the experiment on SR, 20.5 µM (inactive). In addition, the GI50 in the experiment with SW-620 is 35.5 µM (inactive); in the experiment with TK-10 it was 52.1 µM (inactive); in the experiment with UO-31, 33.1 µM (inactive).

On to `COc1cc([N+](=O)[O-])ccc1NC(=O)C(F)(F)F`, for which the GI50 in the experiment with A549, in the experiment on HOP-62, with K562, in the experiment with LOX IMVI, with MOLT-4 and with NCI-H460 was > 100 µM (inactive) each time. Further, the GI50 in the experiment on NCI/ADR-RES, with OVCAR-3, in the experiment on OVCAR-5, in the experiment on RPMI-8226, in the experiment on SR and in the experiment with SW-620 was > 100 µM (inactive) each time. For the same compound, the values for the GI50 in the experiment with TK-10 and with UO-31 were > 100 µM (inactive) and 84.3 µM (inactive), respectively.

As for `COc1ccc(C(=O)N2CCc3c([nH]c4ccccc34)C2C(=O)O)o1` (centres undefined), the GI50 in the experiment on A549, in the experiment with HCC 2998, in the experiment with HOP-62, in the experiment with K562, in the experiment with MOLT-4 and in the experiment on NCI/ADR-RES was > 10 µM (inactive) each time. Also, the GI50 in the experiment on OVCAR-3, in the experiment with RPMI-8226, in the experiment on SR, in the experiment on SW-620 and in the experiment with TK-10 was > 10 µM (inactive) each time.

`C=CCC1C2CCC(O[Si](C(C)C)(C(C)C)C(C)C)(C(C(=O)OC)C2)C1O` (centres undefined): the GI50 with A549 is 32.9 µM (inactive); with HOP-62 it was > 100 µM (inactive); in the experiment on K562 it was 71.9 µM (inactive); in the experiment on MOLT-4, 35.2 µM (inactive); in the experiment on NCI-H460 it was 61.8 µM (inactive); in the experiment with NCI/ADR-RES, > 100 µM (inactive). Also, the GI50 with OVCAR-3 is > 100 µM (inactive); in the experiment on OVCAR-5 it was > 100 µM (inactive); with RPMI-8226, 72.6 µM (inactive); with SR, 17.6 µM (inactive); in the experiment on SW-620, > 100 µM (inactive); with TK-10, 14.4 µM (inactive). Moreover, the GI50 in the experiment with UO-31 was 49.2 µM (inactive).

`O=C1c2ccccc2-c2ccc(O)cc21`: the GI50 in the experiment with A549 is 25.9 µM (inactive); with HOP-62, 36.4 µM (inactive); in the experiment on K562, 31.4 µM (inactive); with LOX IMVI, 40.1 µM (inactive); in the experiment with MOLT-4, 16.1 µM (inactive); in the experiment on NCI-H460, 20.1 µM (inactive). The GI50 is 31.8 µM (inactive) with NCI/ADR-RES; 26.7 µM (inactive) with OVCAR-5; 39 µM (inactive) with RPMI-8226; 10.4 µM (inactive) with RXF 393; 12 µM (inactive) in the experiment on SR; 42.3 µM (inactive) in the experiment with SW-620. Also, the GI50 with TK-10 was 24.5 µM (inactive); in the experiment with UO-31, 17.2 µM (inactive).

Regarding `COC(=O)CP1(=O)OC2C(C3CCC2(C)C3(C)C)N1c1cc(C(F)(F)F)cc(C(F)(F)F)c1` (centres undefined), the GI50 in the experiment with A549 was 30 µM (inactive); in the experiment with HCC 2998, 22.9 µM (inactive); in the experiment on HOP-62 it was 31.2 µM (inactive); with K562 it was 19.5 µM (inactive); in the experiment with LOX IMVI, 22.4 µM (inactive); with MOLT-4 it was 16.7 µM (inactive). The GI50 was 22.2 µM (inactive) with NCI-H460; 20.6 µM (inactive) in the experiment with NCI/ADR-RES; 15.2 µM (inactive) in the experiment on OVCAR-3; 25.3 µM (inactive) with OVCAR-5; 15.9 µM (inactive) with RPMI-8226; 24.8 µM (inactive) in the experiment on SR. For the same compound, the figures for the GI50 in the experiment on SW-620, in the experiment with TK-10 and in the experiment on UO-31 were 24.1 µM (inactive), 24.7 µM (inactive) and 32.9 µM (inactive), respectively.

As to `CN(Cc1cnc2c(N)nc(N)nc2n1)c1ccc(Cl)cc1`, the GI50 in the experiment with HOP-62 is 39.3 µM (inactive); in the experiment on K562, > 100 µM (inactive); in the experiment with MOLT-4, > 100 µM (inactive); in the experiment on NCI-H460, 42.5 µM (inactive); in the experiment with NCI/ADR-RES it was 16.2 µM (inactive); with OVCAR-3, > 100 µM (inactive). Also, the GI50 is > 100 µM (inactive) in the experiment on OVCAR-5; > 100 µM (inactive) in the experiment on RPMI-8226; 17 µM (inactive) in the experiment with RXF 393; 62.2 µM (inactive) in the experiment on SR; > 100 µM (inactive) in the experiment with SW-620; 38.7 µM (inactive) in the experiment with TK-10. In the experiment with UO-31, the GI50 is 47.1 µM (inactive).

Regarding `CC(=O)O[C@H]1CN(S(=O)(=O)c2ccc(C)cc2)C[C@@H]1C1CCCCC1`, the GI50 is 45.6 µM (inactive) with HCC 2998; 35.8 µM (inactive) in the experiment on HOP-62; 32.9 µM (inactive) in the experiment on K562; 21.6 µM (inactive) in the experiment on LOX IMVI; 28.5 µM (inactive) in the experiment on MOLT-4; 31.7 µM (inactive) with NCI-H460. Also, the GI50 in the experiment with NCI/ADR-RES was 19.5 µM (inactive); with OVCAR-3 it was 18 µM (inactive); in the experiment on OVCAR-5 it was 39 µM (inactive); in the experiment with RPMI-8226, 33.1 µM (inactive); in the experiment with SR it was 18.6 µM (inactive); in the experiment on SW-620, 26.1 µM (inactive). Besides, the GI50 in the experiment with TK-10 was 21.9 µM (inactive); in the experiment with UO-31, 38.2 µM (inactive).

In the case of `COc1cc(/C=C2\C[C@H]3[C@@H]4CC=C5C[C@@H](O)CC[C@]5(C)[C@H]4CC[C@]3(C)[C@H]2O)cc(OC)c1OC`, the GI50 was 9.79 µM (inactive) in the experiment on A549; 17.3 µM (inactive) in the experiment with HCC 2998; 10.8 µM (inactive) in the experiment on HOP-62; 5.97 µM (inactive) in the experiment with K562; 8.53 µM (inactive) with LOX IMVI; 5.5 µM (inactive) with MOLT-4. For the same compound, the GI50 was 12 µM (inactive) in the experiment with NCI-H460; 12.9 µM (inactive) with NCI/ADR-RES; 12.2 µM (inactive) with OVCAR-3; 26.3 µM (inactive) in the experiment on OVCAR-5; 4.92 µM (inactive) with RPMI-8226; 5.58 µM (inactive) in the experiment on RXF 393. Moreover, the GI50 with SW-620 is 26.2 µM (inactive); with TK-10, 14.1 µM (inactive); in the experiment with UO-31 it was 13 µM (inactive).

On to `Cc1noc(/N=C2\C=C(O)C(=O)c3ccccc32)c1C`, for which the GI50 with A549 is 5.31 µM (inactive); with HOP-62, 2.18 µM (inactive); in the experiment on K562, 0.206 µM (active); with LOX IMVI it was 2.14 µM (inactive); in the experiment on MOLT-4, 18.7 µM (inactive); with NCI-H460 it was 2.36 µM (inactive). Further, the GI50 is 0.505 µM (active) in the experiment on NCI/ADR-RES; 4.31 µM (inactive) in the experiment on OVCAR-3; 9.27 µM (inactive) with OVCAR-5; 9.64 µM (inactive) with RPMI-8226; 18.7 µM (inactive) in the experiment on SR; > 100 µM (inactive) in the experiment with TK-10. In addition, the GI50 in the experiment with UO-31 is 3.18 µM (inactive).

`Nc1ccc(S(=O)(=O)c2ccc(NC(=O)c3cccnc3)cc2)cc1`: the GI50 with A549 is > 100 µM (inactive); with HCC 2998 it was > 100 µM (inactive); with HOP-62, > 100 µM (inactive); in the experiment on K562, 78 µM (inactive); with LOX IMVI, > 100 µM (inactive); in the experiment on MOLT-4, 57.5 µM (inactive). Besides, the GI50 is > 100 µM (inactive) in the experiment on NCI-H460; > 100 µM (inactive) in the experiment on NCI/ADR-RES; > 100 µM (inactive) with OVCAR-3; > 100 µM (inactive) with OVCAR-5; 36.6 µM (inactive) in the experiment on RPMI-8226; 56.4 µM (inactive) in the experiment on RXF 393. Further, the GI50 with SW-620, in the experiment with TK-10 and in the experiment on UO-31 was > 100 µM (inactive) throughout.

As to `COc1ccc(CCCNC(=O)Cc2ccccc2CO)cc1OC`, the GI50 with A549, in the experiment with HCC 2998, in the experiment on HOP-62, with K562, in the experiment with LOX IMVI and in the experiment on MOLT-4 was > 100 µM (inactive) throughout. For the same compound, the GI50 in the experiment with NCI-H460, in the experiment with NCI/ADR-RES, in the experiment with OVCAR-3, with OVCAR-5, in the experiment with SR and with SW-620 was > 100 µM (inactive) each time. For the same compound, the GI50 in the experiment on TK-10 and with UO-31 was > 100 µM (inactive) each time.

In the case of `CCCCSCc1nc2nc(Cl)c(Cl)nc2[nH]1`, the GI50 in the experiment on A549 was 28.8 µM (inactive); with HOP-62 it was 16.1 µM (inactive); in the experiment on K562, 24 µM (inactive); in the experiment with LOX IMVI, 21.7 µM (inactive); in the experiment on MOLT-4 it was 19.5 µM (inactive); in the experiment on NCI-H460 it was 20.6 µM (inactive). Also, the GI50 in the experiment on NCI/ADR-RES is 27 µM (inactive); in the experiment with OVCAR-3, 12.4 µM (inactive); with OVCAR-5, 30.9 µM (inactive); in the experiment on RPMI-8226, 12.9 µM (inactive); in the experiment on RXF 393, 19.4 µM (inactive); in the experiment with SR, 22 µM (inactive). Further, the results for the GI50 in the experiment with SW-620 and with TK-10 were 28.5 µM (inactive) and 27.9 µM (inactive), respectively.

Regarding `COc1cc([N+](=O)[O-])c(S(=O)(=O)O)cc1N`, the GI50 with A549, with HOP-62, in the experiment with K562, in the experiment on LOX IMVI, in the experiment with MOLT-4 and in the experiment on NCI-H460 was > 100 µM (inactive) each time. Moreover, the GI50 in the experiment with NCI/ADR-RES, in the experiment on OVCAR-3, with OVCAR-5, in the experiment with RPMI-8226, in the experiment with SR and with SW-620 was > 100 µM (inactive) throughout. The GI50 in the experiment with TK-10 and in the experiment with UO-31 was > 100 µM (inactive) throughout.

These data come from ChEMBL document CHEMBL1201862, “PubChem BioAssay data set” (2004).
